This is an account of results in patent US6642227B2, “Inhibitors of c-Jun N-terminal kinases (JNK) and other protein kinases” (Vertex Pharmaceuticals Incorporated, priority 2001, dated 2003).

Bounds are passed on as bounds.

The target in assay [1] is T1, human Src kinase (Homo sapiens, UniProt P12931).
T1 construct: full length recombinant human Src kinase; purchased Upstate Biotechnology 14-117; host or cells: baculovirus-infected cells
The assay can be described thus: Src inhibition assay (A: radioactivity-based or B: spectrophotometric coupled-enzyme assay). The format is biochemical. As to conditions: assay A or B not specified; read-out: Src Activity (Ki class A-C). Here is the method:
The compounds were evaluated as inhibitors of human Src kinase using either a radioactivity-based assay or spectrophotometric assay.
The compounds were assayed as inhibitors of full length recombinant human Src kinase (from Upstate Biotechnology, cat. no. 14-117) expressed and purified from baculo viral cells. Src kinase activity was monitored by following the incorporation of ^33p from ATP into the tyrosine of a random poly Glu-Tyr polymer substrate of composition, Glu:Tyr=4:1 (Sigma, cat. no. P-0275). The following were the final concentrations of the assay components: 0.05 M HEPES, pH 7.6, 10 mM MgCl2, 2 mM DTT, 0.25 mg/ml BSA, 10 μM ATP (1-2 uCi ^33P-ATP per reaction), 5 mg/ml poly Glu-Tyr, and 1-2 units of recombinant human Src kinase. In a typical assay, all the reaction components with the exception of ATP were pre-mixed and aliquoted into assay plate wells.
Inhibitors dissolved in DMSO were added to the wells to give a final DMSO concentration of 2.5%. The assay plate was incubated at 30° C. for 10 min before initiating the reaction with ^33P-ATP. After 20 min of reaction, the reactions were quenched with 150 μl of 10% trichloroacetic acid (TCA) containing 20 mM Na3PO4. The quenched samples were then transferred to a 96-well filter plate (Whatman, UNI-Filter GF/F Glass Fiber Filter, cat no. 7700-3310) installed on a filter plate vacuum manifold. Filter plates were washed four times with 10% TCA containing 20 mM Na3PO4 and then 4 times with methanol. 200 μl of scintillation fluid was then added to each well. The plates were sealed and the amount of radioactivity associated with the filters was quantified on a TopCount scintillation counter. The radioactivity incorporated was plotted as a function of the inhibitor concentration. The data was fitted to a competitive inhibition kinetics model to get the Ki for the compound.
The ADP produced from ATP by the human recombinant Src kinase-catalyzed phosphorylation of poly Glu-Tyr substrate was quanitified using a coupled enzyme assay (Fox et al (1998) Protein Sci 7, 2249). In this assay one molecule of NADH is oxidised to NAD for every molecule of ADP produced in the kinase reaction. The disappearance of NADH can be conveniently followed at 340 nm.
The following were the final concentrations of the assay components: 0.025 M HEPES, pH 7.6, 10 mM MgCl2, 2 mM DTT, 0.25 mg/ml poly Glu-Tyr, and 25 nM of recombinant human Src kinase. Final concentrations of the components of the coupled enzyme system were 2.5 mM phosphoenolpyruvate, 200 μM NADH, 30 μg/ml pyruvate kinase and 10 μg/ml lactate dehydrogenase.
In a typical assay, all the reaction components with the exception of ATP were pre-mixed and aliquoted into assay plate wells. Inhibitors dissolved in DMSO were added to the wells to give a final DMSO concentration of 2.5%. The assay plate was incubated at 30 C. for 10 min before initiating the reaction with 100 μM ATP. The absorbance change at 340 nm with time, the rate of the reaction, was monitored on a molecular devices plate reader. The data of rate as a function of the inhibitor concentration was fitted to compettive inhibition kinetics model to get the Ki for the compound.

Assay [2] addresses human Lck kinase (UniProt P06239). The assay can be described thus: Lck inhibition assay (A: radioactivity-based or B: spectrophotometric coupled-enzyme assay). Type of assay: biochemical. As to conditions: read-out: Lck Activity (Ki rating). The procedure:
The compounds were evaluated as inhibitors of human Lck kinase using either a radioactivity-based assay or spectrophotometric assay.
The compounds were assayed as inhibitors of full length bovine thymus Lck kinase (from Upstate Biotechnology, cat. no. 14-106) expressed and purified from baculo viral cells. Lck kinase activity was monitored by following the incorporation of ^33p from ATP into the tyrosine of a random poly Glu-Tyr polymer substrate of composition, Glu:Tyr=4:1 (Sigma, cat. no. P-0275). The following were the final concentrations of the assay components: 0.025 M HEPES, pH 7.6, 10 mM MgCl2, 2 mM DTT, 0.25 mg/ml BSA, 10 μM ATP (1-2 μCi ^33P-ATP per reaction), 5 mg/ml poly Glu-Tyr, and 1-2 units of recombinant human […] kinase. In a typical assay, all the reaction components with the exception of ATP were pre-mixed and aliquoted into assay plate wells. Inhibitors dissolved in DMSO were added to the wells to give a final DMSO concentration of 2.5%. The assay plate was incubated at 30 C. for 10 min before initiating the reaction with ^33P-ATP. After 20 min of reaction, the reactions were quenched with 150 μl of 10% trichloroacetic acid (TCA) containing 20 mM Na3PO4. The quenched samples were then transferred to a 96-well filter plate (Whatman, UNI-Filter GF/F Glass Fiber Filter, cat no. 7700-3310) installed on a filter plate vacuum manifold. Filter plates were washed four times with 10% TCA containing 20 mM Na3PO4 and then 4 times with methanol. 200 μl of scintillation fluid was then added to each well. The plates were sealed and the amount of radioactivity associated with the filters was quantified on a TopCount scintillation counter. The radioactivity incorporated was plotted as a function of the inhibitor concentration. The data was fitted to a competitive inhibition kinetics model to get the Ki for the compound.
The ADP produced from ATP by the human recombinant Lck kinase-catalyzed phosphorylation of poly Glu-Tyr substrate was quanitified using a coupled enzyme assay (Fox et al (1998) Protein Sci 7, 2249). In this assay one molecule of NADH is oxidised to NAD for every molecule of ADP produced in the kinase reaction. The disappearance of NADH can be conveniently followed at 340 nm.
The following were the final concentrations of the assay components: 0.025 M HEPES, pH 7.6, 10 mM MgCl2, 2 mM DTT, 5 mg/ml poly Glu-Tyr, and 50 nM of recombinant human Lck kinase. Final concentrations of the components of the coupled enzyme system were 2.5 mM phosphoenolpyruvate, 200 μM NADH, 30 μg/ml pyruvate kinase and 10 μg/ml lactate dehydrogenase.
In a typical assay, all the reaction components with the exception of ATP were pre-mixed and aliquoted into assay plate wells. Inhibitors dissolved in DMSO were added to the wells to give a final DMSO concentration of 2.5%. The assay plate was incubated at 30° C. for 10 min before initiating the reaction with 150 μM ATP. The absorbance change at 340 nm with time, the rate of the reaction, was monitored on a molecular devices plate reader. The data of rate as a function of the inhibitor concentration was fitted to competitive inhibition kinetics model to get the Ki for the compound.

T1 sequence (P12931 whole entry): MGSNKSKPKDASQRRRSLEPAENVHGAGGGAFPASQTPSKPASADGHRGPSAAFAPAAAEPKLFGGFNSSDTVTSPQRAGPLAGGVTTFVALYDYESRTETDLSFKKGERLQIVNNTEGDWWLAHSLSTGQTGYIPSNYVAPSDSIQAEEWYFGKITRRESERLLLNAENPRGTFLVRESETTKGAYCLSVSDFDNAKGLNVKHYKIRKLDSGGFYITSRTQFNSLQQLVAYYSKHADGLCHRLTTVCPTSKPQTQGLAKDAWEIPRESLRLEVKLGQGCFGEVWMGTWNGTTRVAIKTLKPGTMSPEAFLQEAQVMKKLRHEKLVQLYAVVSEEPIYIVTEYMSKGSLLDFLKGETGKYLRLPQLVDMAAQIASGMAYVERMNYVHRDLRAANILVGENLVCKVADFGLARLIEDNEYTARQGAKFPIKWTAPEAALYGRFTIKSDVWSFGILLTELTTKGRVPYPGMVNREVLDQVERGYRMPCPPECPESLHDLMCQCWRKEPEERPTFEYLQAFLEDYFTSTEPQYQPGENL

With `CSc1sc(-c2ccnc(Nc3cccc(OCCCNCCO)c3)n2)c(-c2cccc(OCc3ccccc3)c2)c1C#N` [VI-132], the Ki (as a rule, the dissociation constant of the complex between target and ligand, obtained from inhibition or displacement) in assay [1] was 100 to 1000 nM; in assay [2] it was below 100 nM.
The corresponding values for `COCCNCCCOc1cccc(Nc2ncc(C)c(-c3sc(SC)c(C#N)c3-c3cccnc3)n2)c1` [VI-20] are below 100 nM and below 100 nM.
For the molecule `CSc1sc(-c2ccnc(Nc3cccc(OCCCNCCCO)c3)n2)c(-c2cccc(OCc3ccccc3)c2)c1C#N` [VI-133], the Ki in assay [1] and in assay [2] was below 100 nM each time.
Regarding `CSc1sc(-c2ccnc(Nc3cccc(OCCCNCCCO)c3)n2)c(-c2cccc(O)c2)c1C#N` [VI-135], the Ki in assay [1] and in assay [2] was below 100 nM throughout.
As to `CSc1sc(-c2ccnc(Nc3cccc(OCCCNCCO)c3)n2)c(-c2cccc(O)c2)c1C#N` [VI-134], the Ki in assay [1] and in assay [2] was below 100 nM throughout.
Take `CSc1sc(-c2nc(Nc3cccc(OCCCN4CCC[C@H]4CO)c3)ncc2C)c(-c2cccnc2)c1C#N` [VI-24]: the inhibition constant Ki in assay [1] and in assay [2] was below 100 nM throughout.
As for `N#Cc1c(O)sc(-c2ccnc(Nc3cccc(OCc4ccccc4)c3)n2)c1-c1ccccc1` [IIa-42, 5-[2-(3-Benzyloxy-phenylamino)-pyrimidin-4-yl]-2-hydroxy-4-phenyl-thiophene-3-carbonitrile], the inhibition constant (Ki) in assay [1] and in assay [2] was below 100 nM each time.
Turning to `CSc1sc(-c2nc(Nc3cccc(OCCNCCO)c3)ncc2C)c(-c2cccnc2)c1C#N` [VI-119], the results for the Ki in assay [1] and in assay [2] were 100 to 1000 nM and below 100 nM, respectively.
The corresponding values for `CCCCS(=O)(=O)Nc1cccc(Nc2nccc(-c3sc(SC)c(C#N)c3-c3cccnc3)n2)c1` [VI-141] are below 100 nM and below 100 nM.
In the same order, the values of `CCNc1sc(-c2ccnc(Nc3cccc(OC)c3)n2)c(-c2ccccc2)c1C(=O)OCC` [IIa-90, 2-Ethylamino-5-[2-(3-methoxy-phenylamino)-pyrimidin-4-yl]-4-phenyl-thiophene-3-carboxylic acid ethyl ester] are above 1000 nM and 100 to 1000 nM.
In the same order, the values of `CSc1sc(-c2ccnc(Nc3cccc(NC(=O)CCCNC(C)=O)c3)n2)c(-c2cccnc2)c1C#N` [VI-130] are below 100 nM and below 100 nM.
Regarding `CSc1sc(-c2nc(Nc3cccc(OCCN4CCC(CO)CC4)c3)ncc2C)c(-c2cccnc2)c1C#N` [VI-120], the inhibitory constant (Ki) in assay [1] and in assay [2] was below 100 nM each time.
Turning to `CSc1sc(-c2nc(Nc3cccc(OCCCN4CCOCC4)c3)ncc2C)c(-c2cccnc2)c1C#N` [VI-117], the Ki in assay [1] and in assay [2] was 100 to 1000 nM throughout.
`CSc1sc(-c2nc(Nc3cccc(OCCCN4CCNCC4)c3)ncc2C)c(-c2cccnc2)c1C#N` [VI-118]: the values for the Ki in assay [1] and in assay [2] were 100 to 1000 nM and below 100 nM, respectively.
